Reference: US7393857B2, “Use of 5-HT3 receptor antagonists for treating musculoskeletal diseases” (Novasearch AG, priority 1999, dated 2008)

Assays:
Type in all cases: in vivo, human
[1] = system: patients exhibiting rheumatoid arthritis and severe consequential synovial inflammation; experiment: Clinical trial: synovial inflammation/synovitis in rheumatoid arthritis, intraarticular tropisetron (Example 1); details: 2 mg intraarticularly once
[2] = system: patient with Morbus Still; experiment: Left knee joint irritation (Morbus Still), intraarticular injection (Example 4c); details: for knee joint circumference: before 44 cm; for pain under strain (VAS): before 70; for pain at rest in the VAS (0-100): before 98
Excerpt: (§1) Pain is subsequently determined on a visual analogue scale (VAS) that goes from 0 mm (no pain) to 100 mm (strongest pain). • 4a) Enthesiopathy (Insertion Tendopathy) (with infiltration): • (i) patient; Diagnosis: epicondylitis. Rest pain before local injection of tropisetron 30 mm, 7 days later 0 mm. • (ii) patient, diagnosis: periarthropathia humeroscapularis. Rest pain before local injection of tropisetron 85 mm, 7 days after local injection 45 mm. • (iii) Patient, diagnosis: epicondylitis. Rest pain before local injection of tropisetron 35 mm, 7 days thereafter 0 mm. • 4b) Rheumatoid arthritis (intraarticular injection): • (i) patient.
Patient, Morbus Still diagnosed 1.5 years ago. Despite basic treatment with 15 mg methotrexat per week and 20 mg prednisolone per day, the patient suffers from swelling and overheating of the left knee joint for the first time in February 1999. Pain at rest in the VAS 98 (0-100), pain under strain 70. Obvious articular effusion. Knee joint circumference 44 cm, straightening/bending 0°-10°, 115°. 24 hours after an intraarticular injection with 2 mg tropisetron pain at rest in the Visual Analog Scale (VAS) 0, pain under strain 70. […] 7 days later pain at rest in the VAS 0, pain under strain 57, straightening/bending 0°,0°,130°, knee joint circumference 40.5 cm. • 4e) Gonarthrosis: […]

[3] = system: patient with repeated exudation from the knee joint consequential to damage to the meniscus; experiment: Clinical case: repeated knee joint exudation after meniscus damage, intra-articular tropisetron (Example 2, first patient); details: 2 mg intra-articularly
Description: Prior to the trial the patient received injections of glucocorticoid. The patient receives an injection of 2 mg of tropisetron administered intra-articularly.

[4] = system: patient with cervical syndrome; experiment: Spinal syndrome: cervical syndrome, i.v. administration (Examples 5 and 6(i)); details: 2 mg i.v., before injection 68 mm
Excerpt: as §1
Patient, diagnosis: cervical syndrome. Before injection of 2 mg tropisetron 68 mm rest pain, 24 hours later 35 mm, at day 7 18 mm.
Patient, diagnosis: cervical syndrome. Before i.v. injection of 2 mg tropisetron 68 mm rest pain, 24 hours later 35 mm, at day 7 18 mm. • (ii) Lumbalgia: […]

[5] = system: patients exhibiting implant/insertion tendopathy; experiment: Clinical trial: implant/insertion tendopathy, local injection of tropisetron (Example 3); details: 2 mg injected once in the area of greatest pain
Description: The condition treated results in the case of the first patient from epicondylitis radialis, in the case of the second patient from insertion tendopathy in the area of insertion of the deltoid muscle and, in the case of the third patient from an enthesiopathy of the Malleolus lateralis. In all three cases, tropisetron is injected once at a dosage of 2 mg in the area of greatest pain, directly into the tissues. In all three cases severity of pain decreases within a period of 60 min. and virtually complete remittal is achieved within 24 hrs., indicating remission from disease remission.

[6] = system: patient with damage to the meniscus and arthritic change leading to synovial irritation with knee joint effusion; experiment: Clinical case: synovial irritation with knee joint effusion, i.v. tropisetron (Example 2, second patient)
Description: […] 2 mg doses of tropisetron are administered i.v. over a period of 17 days with 15 injections, one each day with a 2 days pause in therapy.

[7] = system: patients with epicondylitis or periarthropathia humeroscapularis; experiment: Enthesiopathy (insertion tendopathy) with infiltration, pain on VAS (Example 4a); details: 7 days after local injection
Excerpt: as §1

[8] = system: patient with activated gonarthritis with effusion; experiment: Gonarthrosis, intra-articular injection (Example 4e); details: intra-articular 2 mg; for pain at rest on the visual analog scale for pain (0-100): before 43
Excerpt: as §1
Patient has activated gonarthritis with effusion for 2 months. Only short-term pain reduction by means of non-steroidal antiphlogistics could be achieved. Following an intra-articular injection with 2 mg tropisetron, pain at rest after 24 hours on the visual analog scale for pain (0-100) sinks from 43 to 25, after 2 days to 13, after 7 days to 10 and in a follow-up check after 17 days to 4. The analog values for pain under strain are 75, 45, 10 and 10, respectively. The effusion is gone after 7 days, as is the overheating of the knee joint.

[9] = 24 hours after intraarticular injection of 2 mg
[10] = 7 days later, intraarticular 2 mg

CN1[C@@H]2CC[C@H]1C[C@@H](OC(=O)c1c[nH]c3ccccc13)C2 [tropisetron, Indol-3-yl-carboxylic acid-endo-8-methyl-8-aza-bicyclo[3,2,1]-oct-3-yl-ester]
symptoms ([1]; both patients examined over one week following treatment): free of symptoms
remission from pain ([1]; two patients (shoulder joint, knee joint), within a few hours): almost complete remission from pain
joint swelling and effusion [2, 9]: significant reduction of joint swelling and effusion
knee joint circumference [2, 9]: 41 cm
pain under strain (VAS) [2, 9]: 70
pain at rest in the VAS (0-100) ([2]; 24 hours after intraarticular injection of 2 mg, on methotrexat and prednisolone): 0
knee joint circumference [2, 10]: 40.5 cm
pain under strain (VAS) [2, 10]: 57
pain at rest in the VAS (0-100) [2, 10]: 0
pain ([3]; after 45 min.): marked reduction of pain
effusion from the knee joint ([3]; after 5 hours): major reduction of effusion
symptoms ([3]; without further therapy, observation period of 5 days): free of symptoms
rest pain (VAS) ([4]; 24 hours later): 35 mm
rest pain (VAS) ([4]; at day 7): 18 mm
further improvements after injection [5]: increase of strength and of flexibility of the affected body part
period within which severity of pain decreases ([5]; all three patients): ≤ 60 min
time within which virtually complete remittal is achieved ([5]; all three patients): ≤ 24 h
movement of the knee joint ([6]; 2 mg i.v. daily): clearly improved
time until exudation from the knee joint is completely inhibited ([6]; 2 mg i.v. daily, without any other medication): ≤ 8 days
symptoms ([6]; 2 mg i.v., 15 injections over 17 days, following continuation of injections): virtually free of symptoms
persistence of improvement in condition after completion of therapy ([6]; 2 mg i.v., 15 injections over 17 days, observation following completion of therapy): continues over a further 7 days observation
pain ([6]; 2 mg i.v., 24 hours after the first i.v. injection): significant improvement of pain
rest pain (VAS) ([7]; patient (i), epicondylitis, before injection 30 mm): 0 mm
rest pain (VAS) ([7]; patient (ii), periarthropathia humeroscapularis, before injection 85 mm): 45 mm
rest pain (VAS) ([7]; patient (iii), epicondylitis, before injection 35 mm): 0 mm
pain at rest on the visual analog scale for pain (0-100) ([8]; after 24 hours): 25
pain at rest on the visual analog scale for pain (0-100) ([8]; after 2 days): 13
effusion ([8]; after 7 days): gone
overheating of the knee joint ([8]; after 7 days): gone
pain at rest on the visual analog scale for pain (0-100) ([8]; after 7 days): 10
pain at rest on the visual analog scale for pain (0-100) ([8]; follow-up check after 17 days): 4
pain under strain, visual analog scale (0-100) ([8]; fourth of four printed values, time point unclear (7 or 17 days)): 10
pain under strain, visual analog scale (0-100) ([8]; second of four printed values, presumably after 24 hours, first value (before) 75): 45
pain under strain, visual analog scale (0-100) ([8]; third of four printed values, time point unclear (2 or 7 days)): 10
